In US9211292B2, “Preventing or reducing drug abuse and overdose events” (ALITAIR PHARMACEUTICALS INC, priority 2011, dated 2015):

Experiment: Dissolution testing, simulated empty stomach (USP 31 NF26 Apparatus 2, 0.1N HCl)
Format: physicochemical
Settings: for HCBT Released / HCBT Released, Percent of Original Dose: 80 mg dose, 0.1N HCl 250 ml 37° C.
Method: The resinate or pure HCBT was weighed to determine the dose to be tested. The resinate or pure HCBT powder was added directly to the vessel for dissolution testing without the use of a capsule or tablet and its associated excipients. The conditions in the first stage to simulate dissolution in an empty stomach were as follows:
The above resinate of the invention having an 11.5% HCBT loading was tested at dosages of 10 mg, 40 mg and 80 mg HCBT. The resinate of the invention having 60.7% HCBT loading was tested at dosages of 10 and 80 mg HCBT. […] A given dose was placed in the dissolution apparatus and stirred for a given length of time. At the end of that time, the quantity of HCBT released was determined by high pressure liquid chromatography.

COc1ccc2c3c1O[C@H]1C(=O)CC[C@H]4[C@@H](C2)N(C)CC[C@]314 [Pure HCBT, Hydrocodone bitartrate]
drug released (FIG. 1) (80 mg dosage in powder form, simulated empty stomach): released essentially all of the drug
HCBT Released (15 min): 78.8 mg
HCBT Released, Percent of Original Dose (15 min): 98.6% of Original Dose
HCBT Released (30 min): 79.2 mg
HCBT Released, Percent of Original Dose (30 min): 99.0% of Original Dose
HCBT Released (45 min): 79.4 mg
HCBT Released, Percent of Original Dose (45 min): 99.2% of Original Dose
HCBT Released (60 min): 79.6 mg
HCBT Released, Percent of Original Dose (60 min): 99.5% of Original Dose
